Where two headings read alike, the source gives them in different places.
Legend:
white blood cell count = assay: COLCOT white blood cell counts (total, lymphocytes, neutrophils); format: in vivo, human; settings: for Total white blood cell count, geometric mean / Total white blood cell count, Adjusted GM percent change: N=992
Excerpt: Additional prespecified exploratory end points included the change from baseline to 6 months in the high-sensitivity C-reactive protein level and the change from baseline to 12 months in the white-cell count. The C-reactive protein biomarker substudy was implemented after a protocol amendment and was optional for sites and for patients; 34 sites chose to participate in this substudy.
The analysis of the primary end point was repeated in the per-protocol population (i.e., patients without major protocol deviations). Secondary and exploratory end points expressed as time to event were analyzed similarly. The changes from baseline to follow-up were analyzed with the use of an analysis of covariance model with adjustment for baseline value, and estimates of treatment effect are presented with 95% confidence intervals.
In Table 8, the placebo-adjusted geometric mean percent change was obtained by exponentiating the adjusted mean difference between groups from the analysis of covariance model (based on log-transformed data), then subtracting 1 and multiplying by 100.
In addition, the C-reactive protein biomarker sub-study was implemented following a protocol amendment and was optional for sites and for patients; 34 sites accepted to participate in this substudy. There were 213 and 208 patients who provided blood samples at baseline and 6 months, respectively. Paired baseline and 6-month hs-CRP values were available in 207 patients. Clinically available white blood cell counts were obtained from 2598 patients at baseline and 1998 patients at 12 months, and paired baseline and 12-month values were available in 1972 patients. Statistical analysis was conducted on the patients who provided both baseline and follow-up data and as these were exploratory analyses, no missing data was imputed.
Information about white-cell counts at baseline and at the 12-month follow-up were also available for a relatively small subgroup of 1972 patients. The adjusted geometric mean percent changes from baseline to 1 year in the total white-cell count were −18.8% in the colchicine group and −19.0% in the placebo group, with no significant difference between groups (0.3% percentage points; 95% CI, −2.2 to 2.7).

[1] = test system: rs6916345 (LINC01108/JARID2, chromosome 6); rs10128117 (SEPHS1, chromosome 10); settings: for HR, gastrointestinal disorders / coef, gastrointestinal disorders / Coefficient, genetic association with gastrointestinal disorders / HR (hazard ratio), genetic association with gastrointestinal disorders: colchicine treatment arm
[2] = baseline to 12 months, colchicine vs placebo
[3] = colchicine arm, males + females, on-treatment pgx population
[4] = rs535968 effect allele C vs T, males + females
[5] = rs615497 effect allele G vs A, males + females
[6] = rs825610 effect allele C vs T, males + females
[7] = rs2253619 chr 10, EA T vs NEA C
[8] = rs2253619 effect allele T vs C, males + females
[9] = rs2476986 effect allele T vs G, males + females
[10] = rs2783648 effect allele A vs T, males + females
[11] = rs7894075 effect allele C vs A, males + females
[12] = rs7901525 effect allele A vs C, males + females
[13] = rs7902331 effect allele T vs C, males + females
[14] = rs7916194 effect allele T vs A, males + females
[15] = rs7917549 effect allele A vs G, males + females
[16] = rs7919509 effect allele C vs T, males + females
[17] = rs9423893 effect allele A vs G, males + females
[18] = rs10128117 chr 10, EA A vs NEA T
[19] = rs10128117 effect allele A vs T, males + females
[20] = rs10906346 effect allele A vs G, males + females
[21] = rs11258319 effect allele T vs C, males + females
[22] = rs12210439 chr 6, EA A vs NEA G
[23] = rs41291319 effect allele A vs G, males + females
[24] = rs41291321 effect allele C vs G, males + females
[25] = rs58260827 effect allele CA vs C, males + females
[26] = rs61851591 chr 10, EA A vs NEA C
[27] = rs61851591 effect allele A vs C, males + females
[28] = rs61851592 chr 10, EA T vs NEA C
[29] = rs61851592 effect allele T vs C, males + females
[30] = rs61851593 chr 10, EA C vs NEA T
[31] = rs61851593 effect allele C vs T, males + females
[32] = rs61851598 effect allele A vs G, males + females
[33] = rs61851599 effect allele T vs C, males + females
[34] = rs70993041 chr 6, EA TAA vs NEA T
[35] = rs74795203 chr 10, EA G vs NEA A
[36] = rs74795203 effect allele G vs A, males + females
[37] = rs77006996 chr 10, EA T vs NEA C
[38] = rs77006996 effect allele T vs C, males + females
[39] = rs117874450 effect allele T vs C, males + females
[40] = rs552621122 effect allele A vs ATT, males + females

## COc1cc2c(c(OC)c1OC)-c1ccc(OC)c(=O)cc1[C@@H](NC(C)=O)CC2 [Colchicine, colchicine]
White blood cell count; at 12 months
  Circulating lymphocytes, geometric mean: 1.83 10^3/μL
  Circulating neutrophils, geometric mean: 3.95 10^3/μL
  Total white blood cell count, geometric mean: 6.95 10^3/μL
White blood cell count; at Randomization (baseline)
  Circulating lymphocytes, geometric mean: 1.79 10^3/μL
  Circulating neutrophils, geometric mean: 5.45 10^3/μL
  Total white blood cell count, geometric mean: 8.54 10^3/μL
White blood cell count; baseline to 12 months
  Circulating lymphocytes, Adjusted GM percent change: 1.80%
  Circulating neutrophils, Adjusted GM percent change: −27.63%
  Total white blood cell count, Adjusted GM percent change: −18.81%
White blood cell count; baseline to 12 months, listed as colchicine
  Total white blood cell count, Adjusted GM percent change: −18.8%
White blood cell count; [2]
  Circulating lymphocytes, Placebo-adjusted GM percent change: 1.10%
  Circulating neutrophils, Placebo-adjusted GM percent change: 0.45%
  Total white blood cell count, Placebo-adjusted GM percent change: 0.26%
White blood cell count; baseline to 12 months, colchicine vs placebo, listed as colchicine
  Total white blood cell count, Placebo-adjusted GM percent change: 0.3%
[1]; [3]
  Gastrointestinal disorders, hr per effect allele, rs857414 (G vs T): 0.6
  Gastrointestinal disorders, hr per effect allele, rs2327827 (G vs A): 0.5
  Gastrointestinal disorders, hr per effect allele, rs4620126 (G vs A): 0.6
  Gastrointestinal disorders, hr per effect allele, rs6459368 (A vs G): 0.5
  Gastrointestinal disorders, hr per effect allele, rs6903188 (G vs A): 0.6
  Gastrointestinal disorders, hr per effect allele, rs6918045 (T vs C): 0.6
  Gastrointestinal disorders, hr per effect allele, rs6920905 (C vs T): 0.5
  Gastrointestinal disorders, hr per effect allele, rs7747013 (G vs A): 0.5
  Gastrointestinal disorders, hr per effect allele, rs7751771 (C vs T): 0.5
  Gastrointestinal disorders, hr per effect allele, rs7764937 (C vs G): 0.5
  Gastrointestinal disorders, hr per effect allele, rs9349955 (T vs C): 0.5
  Gastrointestinal disorders, hr per effect allele, rs9358042 (T vs C): 0.6
  Gastrointestinal disorders, hr per effect allele, rs9358044 (T vs A): 0.5
  Gastrointestinal disorders, hr per effect allele, rs9370772 (T vs C): 0.6
  Gastrointestinal disorders, hr per effect allele, rs9382993 (C vs T): 0.5
  Gastrointestinal disorders, hr per effect allele, rs9464702 (G vs A): 0.6
  Gastrointestinal disorders, hr per effect allele, rs9476615 (T vs C): 0.6
  Gastrointestinal disorders, hr per effect allele, rs9476616 (G vs C): 0.5
  Gastrointestinal disorders, hr per effect allele, rs12210439 (A vs G): 0.6
  Gastrointestinal disorders, hr per effect allele, rs70993041 (TAA vs T): 0.5
[1]; genotype A/A at rs6916345
  times more likely to have reported gastrointestinal disorders with colchicine than with placebo: 2.4 times
[1]; genotype G/G at rs6916345
  less likely to have reported gastrointestinal disorders with colchicine than with placebo: 57%
[1]; genotype T/A at rs10128117
  times more likely to have reported gastrointestinal disorders with colchicine than with placebo: 3.7 times
[1]; [4]
  HR, gastrointestinal disorders: 2.3
  coef, gastrointestinal disorders: 0.8496
[1]; [5]
  HR, gastrointestinal disorders: 2.4
  coef, gastrointestinal disorders: 0.8683
[1]; [6]
  HR, gastrointestinal disorders: 2.4
  coef, gastrointestinal disorders: 0.8604
[1]; [7]
  Coefficient, genetic association with gastrointestinal disorders: 0.921
  HR (hazard ratio), genetic association with gastrointestinal disorders: 2.51
[1]; [8]
  HR, gastrointestinal disorders: 2.5
  coef, gastrointestinal disorders: 0.9205
[1]; rs2327827 chr 6, EA G vs NEA A
  Coefficient, genetic association with gastrointestinal disorders: −0.620
  HR (hazard ratio), genetic association with gastrointestinal disorders: 0.54
[1]; [9]
  HR, gastrointestinal disorders: 2.4
  coef, gastrointestinal disorders: 0.8717
[1]; [10]
  HR, gastrointestinal disorders: 2.4
  coef, gastrointestinal disorders: 0.8625
[1]; rs6459368 chr 6, EA A vs NEA G
  Coefficient, genetic association with gastrointestinal disorders: −0.602
  HR (hazard ratio), genetic association with gastrointestinal disorders: 0.55
[1]; rs6903188 chr 6, EA G vs NEA A
  Coefficient, genetic association with gastrointestinal disorders: −0.598
  HR (hazard ratio), genetic association with gastrointestinal disorders: 0.55
[1]; rs6916345 chr 6, EA G vs NEA A
  Coefficient, genetic association with gastrointestinal disorders: −0.639
  HR (hazard ratio), genetic association with gastrointestinal disorders: 0.53
[1]; rs6918045 chr 6, EA T vs NEA C
  Coefficient, genetic association with gastrointestinal disorders: −0.598
  HR (hazard ratio), genetic association with gastrointestinal disorders: 0.55
[1]; rs6920905 chr 6, EA C vs NEA T
  Coefficient, genetic association with gastrointestinal disorders: −0.628
  HR (hazard ratio), genetic association with gastrointestinal disorders: 0.53
[1]; rs7747013 chr 6, EA G vs NEA A
  Coefficient, genetic association with gastrointestinal disorders: −0.600
  HR (hazard ratio), genetic association with gastrointestinal disorders: 0.55
[1]; rs7751771 chr 6, EA C vs NEA T
  Coefficient, genetic association with gastrointestinal disorders: −0.598
  HR (hazard ratio), genetic association with gastrointestinal disorders: 0.55
[1]; rs7764937 chr 6, EA C vs NEA G
  Coefficient, genetic association with gastrointestinal disorders: −0.599
  HR (hazard ratio), genetic association with gastrointestinal disorders: 0.55
[1]; [11]
  HR, gastrointestinal disorders: 2.4
  coef, gastrointestinal disorders: 0.8903
[1]; [12]
  HR, gastrointestinal disorders: 2.4
  coef, gastrointestinal disorders: 0.8865
[1]; [13]
  HR, gastrointestinal disorders: 2.4
  coef, gastrointestinal disorders: 0.8596
[1]; [14]
  HR, gastrointestinal disorders: 2.5
  coef, gastrointestinal disorders: 0.9034
[1]; [15]
  HR, gastrointestinal disorders: 2.4
  coef, gastrointestinal disorders: 0.8864
[1]; [16]
  HR, gastrointestinal disorders: 2.5
  coef, gastrointestinal disorders: 0.9034
[1]; rs9349955 chr 6, EA T vs NEA C
  Coefficient, genetic association with gastrointestinal disorders: −0.633
  HR (hazard ratio), genetic association with gastrointestinal disorders: 0.53
[1]; rs9358044 chr 6, EA T vs NEA A
  Coefficient, genetic association with gastrointestinal disorders: −0.610
  HR (hazard ratio), genetic association with gastrointestinal disorders: 0.54
[1]; rs9382993 chr 6, EA C vs NEA T
  Coefficient, genetic association with gastrointestinal disorders: −0.636
  HR (hazard ratio), genetic association with gastrointestinal disorders: 0.53
[1]; [17]
  HR, gastrointestinal disorders: 2.4
  coef, gastrointestinal disorders: 0.8599
[1]; rs9476616 chr 6, EA G vs NEA C
  Coefficient, genetic association with gastrointestinal disorders: −0.607
  HR (hazard ratio), genetic association with gastrointestinal disorders: 0.55
[1]; [18]
  Coefficient, genetic association with gastrointestinal disorders: 0.934
  HR (hazard ratio), genetic association with gastrointestinal disorders: 2.55
[1]; [19]
  HR, gastrointestinal disorders: 2.5
  coef, gastrointestinal disorders: 0.9342
[1]; [20]
  HR, gastrointestinal disorders: 2.5
  coef, gastrointestinal disorders: 0.902
[1]; [21]
  HR, gastrointestinal disorders: 2.4
  coef, gastrointestinal disorders: 0.8718
[1]; [22]
  Coefficient, genetic association with gastrointestinal disorders: −0.594
  HR (hazard ratio), genetic association with gastrointestinal disorders: 0.55
[1]; [23]
  HR, gastrointestinal disorders: 2.4
  coef, gastrointestinal disorders: 0.8843
[1]; [24]
  HR, gastrointestinal disorders: 2.4
  coef, gastrointestinal disorders: 0.8594
[1]; [25]
  HR, gastrointestinal disorders: 2.4
  coef, gastrointestinal disorders: 0.8895
[1]; [26]
  Coefficient, genetic association with gastrointestinal disorders: 0.917
  HR (hazard ratio), genetic association with gastrointestinal disorders: 2.50
[1]; [27]
  HR, gastrointestinal disorders: 2.5
  coef, gastrointestinal disorders: 0.9168
[1]; [28]
  Coefficient, genetic association with gastrointestinal disorders: 0.921
  HR (hazard ratio), genetic association with gastrointestinal disorders: 2.51
[1]; [29]
  HR, gastrointestinal disorders: 2.5
  coef, gastrointestinal disorders: 0.9206
[1]; [30]
  Coefficient, genetic association with gastrointestinal disorders: 0.921
  HR (hazard ratio), genetic association with gastrointestinal disorders: 2.51
[1]; [31]
  HR, gastrointestinal disorders: 2.5
  coef, gastrointestinal disorders: 0.9206
[1]; [32]
  HR, gastrointestinal disorders: 2.4
  coef, gastrointestinal disorders: 0.8657
[1]; [33]
  HR, gastrointestinal disorders: 2.4
  coef, gastrointestinal disorders: 0.8665
[1]; [34]
  Coefficient, genetic association with gastrointestinal disorders: −0.632
  HR (hazard ratio), genetic association with gastrointestinal disorders: 0.53
[1]; [35]
  Coefficient, genetic association with gastrointestinal disorders: 0.921
  HR (hazard ratio), genetic association with gastrointestinal disorders: 2.51
[1]; [36]
  HR, gastrointestinal disorders: 2.5
  coef, gastrointestinal disorders: 0.9207
[1]; [37]
  Coefficient, genetic association with gastrointestinal disorders: 0.917
  HR (hazard ratio), genetic association with gastrointestinal disorders: 2.50
[1]; [38]
  HR, gastrointestinal disorders: 2.5
  coef, gastrointestinal disorders: 0.9167
[1]; [39]
  HR, gastrointestinal disorders: 2.4
  coef, gastrointestinal disorders: 0.8656
[1]; [40]
  HR, gastrointestinal disorders: 2.4
  coef, gastrointestinal disorders: 0.8864

Source: patent US12514832B2, “Methods for using low-dose colchicine after myocardial infarction” (INSTITUT DE CARDIOLOGIE DE MONTREAL, priority 2019, dated 2026)
